Data: patent US20220153734A1, “Pyrazolopyridine Compounds For IRE1 Inhibition” (Optikira, LLC, priority 2019, published 2022)

Tested on: ARPE-19 cells stably expressing XBP1 (a.a. 1-376)
Experiment: Cellular XBP1 splicing assay (NanoLuc luciferase, thapsigargin)
Type: cell-based
Settings: Homo sapiens, ARPE-19, 4 h, thapsigargin 150 nM
Method: Cellular XBP1 Splicing Assay
ARPE-19 cells stably expressing XBP1 (a.a. 1-376) with nano-luciferase gene sequence linked so it is in frame when XBP1 is spliced, were cultured in F12 media, 10% FBS, 0.044% sodium bicarbonate, 150 μg/ml hygromycin B and seeded for assays at 5,000 cells in 384 well plates in culture media without hygromycin B and incubated at 37° C./5% CO2. After overnight incubation test compounds were added to the cell plate in a 10-point ½ log dilution series in duplicate (final DMSO concentration 0.117%). After further incubation of 30 minutes thapsigargin was added (final concentration 150 nM) and then another 4 hour incubation. A NanoLuc luciferase assay (Promega) was used according to the manufacturer's instructions to detect the luciferase and luminescence measured on a luminometer (EnVision, PerkinElmer). IC50 values calculated by fitting a sigmoidal curve to percent inhibition of control of compound concentration.

IC50 | Compound
49 nM | COCCN[C@H]1CC[C@H](c2cnc(N)c3c(-c4cc(F)c(NS(=O)(=O)c5cccc(F)c5)cc4F)nn(C(C)C)c32)CC1 [Compound A33, N-(4-(4-amino-1-isopropyl-7-((1r,4r)-4-((2-methoxyethyl)amino)cyclohexyl)-1H-pyrazolo[4,3-c]pyridin-3-yl)-2,5-difluorophenyl)-3-fluorobenzenesulfonamide]
44 nM | COCCN[C@H]1CC[C@H](c2cnc(N)c3c(-c4cc(F)c(NS(=O)(=O)c5cc(OC(F)(F)F)ccc5F)cc4F)nn(C(C)C)c32)CC1 [Compound A59, N-(4-(4-amino-1-isopropyl-7-((1r,4r)-4-((2-methoxyethyl)amino)cyclohexyl)-1H-pyrazolo[4,3-c]pyridin-3-yl)-2,5-difluorophenyl)-2-fluoro-5-(trifluoromethoxy)benzenesulfonamide]
16 nM | CCCOc1ccc(F)c(S(=O)(=O)Nc2cc(F)c(-c3nn(C(C)C)c4c3c(N)ncc4[C@H]3CC[C@H](NCCOC)CC3)cc2F)c1 [Compound A60, N-(4-(4-amino-1-isopropyl-7-((1r,4r)-4-((2-methoxyethyl)amino)cyclohexyl)-1H-pyrazolo[4,3-c]pyridin-3-yl)-2,5-difluorophenyl)-2-fluoro-5-propoxybenzenesulfonamide]

Same assay, conditions: thapsigargin 150 nM, 4 hour

IC50 | Compound
38 nM | Nc1ncc(C2=CCC(NC3COC3)CC2)c2c1c(-c1ccc(NS(=O)(=O)Cc3ccccc3F)c(F)c1)nn2C1CC1 (single isomer, unassigned) [Compound B20, N-(4-(4-amino-1-cyclopropyl-7-(4-(oxetan-3-ylamino)cyclohex-1-en-1-yl)-1H-pyrazolo[4,3-c]pyridin-3-yl)-2-fluorophenyl)-1-(2-fluorophenyl)methanesulfonamide]
11 nM | Nc1ncc(C2=CCC(NC3COC3)CC2)c2c1c(-c1ccc(NS(=O)(=O)Cc3ccccc3F)c(F)c1)nn2C1CC1 (single isomer, unassigned) [Compound B21, N-(4-(4-amino-1-cyclopropyl-7-(4-(oxetan-3-ylamino)cyclohex-1-en-1-yl)-1H-pyrazolo[4,3-c]pyridin-3-yl)-2-fluorophenyl)-1-(2-fluorophenyl)methanesulfonamide]
170 nM | CCn1nc(-c2ccc(NS(=O)(=O)Cc3ccccc3Cl)cc2)c2c(N)ncc(C3=CCC(NC4COC4)CC3)c21 (single isomer, unassigned) [Compound B25, N-(4-(4-amino-1-ethyl-7-(4-(oxetan-3-ylamino)cyclohex-1-en-1-yl)-1H-pyrazolo[4,3-c]pyridin-3-yl)phenyl)-1-(2-chlorophenyl)methanesulfonamide]
220 nM | CCn1nc(-c2ccc(NS(=O)(=O)c3cc(Cl)ccc3F)c(F)c2)c2c(N)ncc(C3=CCC(NC4COC4)CC3)c21 (single isomer, unassigned) [Compound B39, N-(4-(4-amino-1-ethyl-7-(4-(oxetan-3-ylamino)cyclohex-1-en-1-yl)-1H-pyrazolo[4,3-c]pyridin-3-yl)-2-fluorophenyl)-5-chloro-2-fluorobenzenesulfonamide]
200 nM | CC(C)n1nc(-c2ccc(NS(=O)(=O)c3ccccc3Cl)c(F)c2)c2c(N)ncc(C3=CCC(NC4COC4)CC3)c21 (single isomer, unassigned) [Compound B56, N-(4-(4-amino-1-isopropyl-7-(4-(oxetan-3-ylamino)cyclohex-1-en-1-yl)-1H-pyrazolo[4,3-c]pyridin-3-yl)-2-fluorophenyl)-2-chlorobenzenesulfonamide]
20 nM | CC(C)n1nc(-c2ccc(NS(=O)(=O)c3ccccc3Cl)c(F)c2)c2c(N)ncc(C3=CCC(NC4COC4)CC3)c21 (single isomer, unassigned) [Compound B57, N-(4-(4-amino-1-isopropyl-7-(4-(oxetan-3-ylamino)cyclohex-1-en-1-yl)-1H-pyrazolo[4,3-c]pyridin-3-yl)-2-fluorophenyl)-2-chlorobenzenesulfonamide]
